# Values quoted from earlier work in PubChem BioAssay AID1259409 (Chemical Carcinogenesis Research Information System (CCRIS), 2018).
# Test system: rodent chemically induced tumor inhibition, incidence and multiplicity
# Assay: CCRIS tumor inhibitor studies
# Conditions: Dose [Inhibitor]: 0, Species: RAT
structure (smiles),measurement,setting,value
NCCS,"tumour outcome (control, treated, inhibition, significance)","Carcinogen: 7,12-DIMETHYLBENZ[A]ANTHRACENE, 57-97-6, 0.015 MOL/KG DIET BEGINNING 2 WK PRIOR TO CARCINOGEN AND CONTINUED FOR STUDY DURATION (STUDY DURATION: 25 WK), Route [Inhibitor]: ORAL, Strain/Sex: CD-1/FEMALE, Target Tissue: Type of Lesion: MAMMARY GLAND: ADENOCARCINOMA, Dose [Carcinogen]: 10 MG ONCE, Promoter: NONE USED","18/25 (72%), 17/25 (68%), 5%, not significant"
same,"tumour outcome (control, treated, inhibition, significance)","Carcinogen: 7,12-DIMETHYLBENZ[A]ANTHRACENE, 57-97-6, 0.03 MOL/KG DIET BEGINNING 2 WK PRIOR TO CARCINOGEN AND CONTINUED FOR STUDY DURATION (STUDY DURATION: 25 WK), Route [Inhibitor]: ORAL, Strain/Sex: CD-1/FEMALE, Target Tissue: Type of Lesion: MAMMARY GLAND: ADENOCARCINOMA, Dose [Carcinogen]: 10 MG ONCE, Promoter: NONE USED","18/25 (72%), 12/25 (48%), 33%, not significant"
same,"tumour outcome (control, treated, inhibition, significance)","Carcinogen: 7,12-DIMETHYLBENZ[A]ANTHRACENE, 57-97-6, 0.06 MOL/KG DIET BEGINNING 2 WK PRIOR TO CARCINOGEN AND CONTINUED FOR STUDY DURATION (STUDY DURATION: 25 WK), Route [Inhibitor]: ORAL, Strain/Sex: CD-1/FEMALE, Target Tissue: Type of Lesion: MAMMARY GLAND: ADENOCARCINOMA, Dose [Carcinogen]: 10 MG ONCE, Promoter: NONE USED","18/25 (72%), 13/25 (52%), 28%, not significant"
same,"tumour outcome (control, treated, inhibition, significance)","Carcinogen: AZOXYMETHANE, 25843-45-2, 25 MG/KG IN 0.9% SODIUM CHLORIDE 1/2 D FOR 40 WK ADMINISTERED CONCURRENTLY WITH CARCINOGEN (STUDY DURATION: 40 WK), Route [Inhibitor]: SUBCUTANEOUS, Strain/Sex: WISTAR, Target Tissue: Type of Lesion: COLON: TUMOR, Dose [Carcinogen]: 7.4 MG/KG IN 0.9% SODIUM CHLORIDE SOLUTION 1/WK FOR 10 WK, Promoter: NONE USED","17/18 (94%), 7/17 (41%), 56%, p<0.01"
same,"tumour outcome (control, treated, inhibition, significance)","Carcinogen: N-METHYL-N'-NITRO-N-NITROSOGUANIDINE, 70-25-7, 5 MG/KG 1/2 D ADMINISTERED SIMULTANEOUSLY WITH 30 MG/KG SULPIRIDE BEGINNING 1 WK POST CARCINOGEN TREATMENT AND CONTIN, Route [Inhibitor]: SUBCUTANEOUS, Strain/Sex: WISTAR/MALE, Target Tissue: Type of Lesion: STOMACH: ADENOCARCINOMA, Dose [Carcinogen]: 50 UG/ML IN DRINKING WATER FOR 25 WK, Promoter: NONE USED","13/18 (72%), 5/20 (25%), 65%, not calculated"
same,"tumour outcome (control, treated, inhibition, significance)","Carcinogen: N-METHYL-N'-NITRO-N-NITROSOGUANIDINE, 70-25-7, 5 MG/KG 1/2 D BEGINNING 1 WK POST CARCINOGEN TREATMENT AND CONTINUING FOR DURATION OF STUDY (STUDY DURATION: 52 WK), Route [Inhibitor]: SUBCUTANEOUS, Strain/Sex: WISTAR/MALE, Target Tissue: Type of Lesion: STOMACH: ADENOCARCINOMA, Dose [Carcinogen]: 50 UG/ML IN DRINKING WATER FOR 25 WK, Promoter: NONE USED","13/18 (72%), 13/20 (65%), 10%, not significant"
same,"tumour outcome (control, treated, inhibition, significance)","Carcinogen: N-METHYL-N'-NITRO-N-NITROSOGUANIDINE, 70-25-7, 5 MG/KG IN 1 ML/KG OLIVE OIL 1/2 D FOR STUDY DURATION BEGINNING POST CARCINOGEN TREATMENT (STUDY DURATION: 52 WK), Route [Inhibitor]: SUBCUTANEOUS, Strain/Sex: WISTAR/MALE, Target Tissue: Type of Lesion: GLANDULAR STOMACH: ADENOCARCINOMA, Dose [Carcinogen]: 50 UG/ML DRINKING WATER FOR 25 WK","13/18 (72%), 13/20 (65%), 10%, not significant"
same,"tumour outcome (control, treated, inhibition, significance)","Carcinogen: N-METHYL-N'-NITRO-N-NITROSOGUANIDINE, 70-25-7, 25 MG/KG 1/2 D ADMINISTERED SIMULTANEOUSLY WITH 30 MG/KG SULPIRIDE BEGINNING 1 WK POST CARCINOGEN TREATMENT AND CONTI, Route [Inhibitor]: SUBCUTANEOUS, Strain/Sex: WISTAR/MALE, Target Tissue: Type of Lesion: STOMACH: ADENOCARCINOMA, Dose [Carcinogen]: 50 UG/ML IN DRINKING WATER FOR 25 WK, Promoter: NONE USED","13/18 (72%), 6/20 (30%), 58%, not calculated"
same,"tumour outcome (control, treated, inhibition, significance)","Carcinogen: N-METHYL-N'-NITRO-N-NITROSOGUANIDINE, 70-25-7, 25 MG/KG 1/2 D BEGINNING 1 WK POST CARCINOGEN TREATMENT AND CONTINUING FOR DURATION OF STUDY (STUDY DURATION: 52 WK), Route [Inhibitor]: SUBCUTANEOUS, Strain/Sex: WISTAR/MALE, Target Tissue: Type of Lesion: STOMACH: ADENOCARCINOMA, Dose [Carcinogen]: 50 UG/ML IN DRINKING WATER FOR 25 WK, Promoter: NONE USED","13/18 (72%), 6/20 (30%), 58%, p<0.05"
same,"tumour outcome (control, treated, inhibition, significance)","Carcinogen: N-METHYL-N'-NITRO-N-NITROSOGUANIDINE, 70-25-7, 25 MG/KG IN 0.9% SALINE 1/2 D BEGINNING 1 WK POST LAST CARCINOGEN DOSE AND CONTINUING FOR DURATION OF STUDY (STUDY DU, Route [Inhibitor]: SUBCUTANEOUS, Strain/Sex: WISTAR/MALE, Target Tissue: Type of Lesion: STOMACH: ADENOCARCINOMA, Dose [Carcinogen]: 100 UG/ML IN DRINKING WATER FOR 25 WK, Promoter: NONE USED","16/20 (80%), 10/22 (45%), 44%, p<0.05"
